Test results reported in patent publication US10723741B1, “DNA polymerase IIIC inhibitors and use thereof” (Acurx Pharmaceuticals, LLC, priority 2018, dated 2020).
In brackets after ≈: the same amount, converted by molar mass. Read-outs that look alike come from different tables or passages of the source.

Tests used:
Assay type in all cases: cell-based
[1] = test system: Staphylococcus aureus NRS384 (MRSA); assay: Broth microdilution MIC, S. aureus NRS384 (MRSA); set-up: MIC NRS 384 (MRSA): unit not given here; conditions: broth microdilution, 37° C., 20 hours; for MIC: Staphylococcus aureus
In short: (§1)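 Two-fold dilutions from 64 to 0.0625 μg/ml final, 1% DMSO, were inoculated at ~5.0×10^5 cfu/ml in the strain's test medium and kept 20 h at 37 °C in ambient atmosphere. Colonies were grown on MHA, with S. pneumoniae on blood agar under 5% CO2.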

[2] = test system: Staphylococcus aureus ATCC 29213 (MSSA); assay: Broth microdilution MIC, S. aureus ATCC 29213 (MSSA); conditions: broth microdilution, 37° C., 20 hours, read-out: MIC S. aureus ATCC 29213 (MSSA)
In short: as §1

[3] = test system: Enterococcus faecalis ATCC 29212; assay: Broth microdilution MIC, E. faecalis ATCC 29212; conditions: ATCC29212, broth microdilution, 37° C., 20 hours, read-out: MIC E. faecalis ATCC 29212
In short: as §1

[4] = test system: Enterococcus faecium ATCC 700221 (VRE); assay: Broth microdilution MIC, E. faecium ATCC 700221 (VRE); set-up: MIC E. faecium ATCC 700221 (VRE): unit: ug/mL; conditions: broth microdilution, 37° C., 20 hours; for MIC: Enterococcus faecium
In short: as §1

[5] = test system: Streptococcus pneumoniae ATCC 49619; assay: Broth microdilution MIC, S. pneumoniae ATCC 49619; conditions: ATCC49619, broth microdilution, 37° C., 20 hours, read-out: MIC S. pneumoniae ATCC 49619
In short: as §1

[6] = test system: Bacillus subtilis ATCC 6633; assay: Broth microdilution MIC, B. subtilis ATCC 6633; conditions: ATCC6633, broth microdilution, 37° C., 20 hours, read-out: MIC B. subtilis ATCC 6633
In short: as §1

[7] = test system: Escherichia coli ATCC 25922; assay: Broth microdilution MIC, E. coli ATCC 25922 (MHIIB w & w/o 4 mM EDTA); conditions: broth microdilution, 37° C., 20 hours; for MIC: Escherichia coli, ATCC25922, without EDTA, read-out: MIC E. coli ATCC 25922; for MIC E. coli ATCC 25922 + 4 mM EDTA: with 4 mM EDTA
In short: as §1

[8] = S. aureus NRS 384, read-out: MIC NRS 384 (MRSA)
[9] = read-out: MIC E. faecium ATCC 700221 (VRE)

SMILES | MIC [1, 8] [µg/mL] | MIC [2] [µg/mL] | MIC [3] [µg/mL] | MIC [4, 9] [µg/mL] | MIC [5] [µg/mL] | MIC [6] [µg/mL] | MIC [7] [µg/mL] | MIC E. coli ATCC 25922 + 4 mM EDTA [7] [µg/mL] | MIC ([1]; read-out: MIC NRS 384 (MRSA)) [µg/mL] | MIC ([1]; MHIIB, read-out: MIC against S. aureus NRS 384 (MRSA)) [µg/mL] | MIC ([4]; MHIIB, read-out: MIC against E. faecium ATCC 700221 (VRE)) [µg/mL] | MIC NRS 384 (MRSA) [1] | MIC E. faecium ATCC 700221 (VRE) [4]
Cl.O=C(c1ccncc1)N1CCC(n2nc(F)c3nc(NCc4ccc(F)c(F)c4)[nH]c(=O)c32)CC1 [Compound 319, 5-((3,4-difluorobenzyl)amino)-3-fluoro-1-(1-isonicotinoylpiperidin-4-yl)-1H-pyrazolo[4,3-d]pyrimidin-7(6H)-one hydrochloride] | 8 | 8 | 8 | 4 | 4 | 2 | > 64 | >64 |  |  |  |  | 
O=c1[nH]c(NCc2ccc(Cl)c(Cl)c2)nc2cnn(CCO)c12 [Compound 76, 5-((3,4-dichlorobenzyl)amino)-1-(2-hydroxyethyl)-1H-pyrazolo[4,3-d]pyrimidin-7(6H)-one] |  | 4 (≈ 11.3 µM) | 4 (≈ 11.3 µM) | 2 (≈ 5.65 µM) | 4 (≈ 11.3 µM) | 2 (≈ 5.65 µM) | > 64 | >64 | 4 (≈ 11.3 µM) |  |  |  | 
CNC(=N)NCCn1ncc2nc(NCc3ccc(Cl)c(Cl)c3)[nH]c(=O)c21.Cl [Compound 294, 1-(2-(5-((3,4-Dichlorobenzyl)amino)-7-oxo-6,7-dihydro-1H-pyrazolo[4,3-d]pyrimidin-1-yl)ethyl)-3-methylguanidine hydrochloride] |  | 32 | 64 | 64 | 32 | 16 | > 64 | 64 | 32 |  |  |  | 
Cl.O=C([C@@H]1C[C@H](O)CN1)N1CCC(n2ncc3nc(NCc4ccc(Cl)c(Cl)c4)[nH]c(=O)c32)CC1 [Compound 278, 5-((3,4-dichlorobenzyl)amino)-1-(1-((2S,4S)-4-hydroxypyrrolidine-2-carbonyl)piperidin-4-yl)-1H-pyrazolo[4,3-d]pyrimidin-7(6H)-one hydrochloride] |  | > 64 | > 64 | 64 | 32 | 32 | > 64 | >64 | > 64 |  |  |  | 
CNCC(COC)OCCn1ncc2nc(NCc3ccc(Cl)c(Cl)c3)[nH]c(=O)c21.Cl (stereo not drawn) [Compound 184, 5-((3,4-dichlorobenzyl)amino)-1-(2-((1-methoxy-3-(methylamino)propan-2-yl)oxy)ethyl)-1H-pyrazolo[4,3-d]pyrimidin-7(6H)-one] |  | 64 | 64 | 64 | 8 | 8 | > 64 | 64 | 64 |  |  |  | 
CCCCOCCOCCOCCn1ncc2nc(NCc3ccc(Cl)c(Cl)c3)[nH]c(=O)c21 [Compound 95, 1-(2-(2-(2-Butoxyethoxy)ethoxy)ethyl)-5-((3,4-dichlorobenzyl)amino)-1H-pyrazolo[4,3-d]pyrimidin-7(6H)-one] |  | 4 (≈ 8.03 µM) | 16 (≈ 32.1 µM) | 4 (≈ 8.03 µM) | 8 (≈ 16.1 µM) | 2 (≈ 4.01 µM) | > 64 | >64 | 4 (≈ 8.03 µM) |  |  |  | 
O=C(O)COCCOCCn1ncc2nc(NCc3ccc(Cl)c(Cl)c3)[nH]c(=O)c21 [Compound 187, 2-(2-(2-(5-((3,4-dichlorobenzyl)amino)-7-oxo-6,7-dihydro-1H-pyrazolo[4,3-d]pyrimidin-1-yl)ethoxy)ethoxy)acetic acid] |  | > 64 | 64 (≈ 140 µM) | 64 (≈ 140 µM) | > 64 | 64 (≈ 140 µM) | > 64 | >64 | > 64 |  |  |  | 
CN(CCn1ncc2nc(NCc3ccc(Cl)c(Cl)c3)[nH]c(=O)c21)C(=O)c1cc(Cl)nnc1O [Compound 81, 6-Chloro-N-(2-(5-((3,4-dichlorobenzyl)amino)-7-oxo-6,7-dihydro-1H-pyrazolo[4,3-d]pyrimidin-1-yl)ethyl)-3-hydroxy-N-methylpyridazine-4-carboxamide] |  | 64 (≈ 122 µM) | 32 (≈ 61.1 µM) | 32 (≈ 61.1 µM) | 8 (≈ 15.3 µM) | 64 (≈ 122 µM) | > 64 | 64 | 64 (≈ 122 µM) |  |  |  | 
COc1cncc(C(=O)N2CCC(n3ncc4nc(NCc5ccc(Cl)c(Cl)c5)[nH]c(=O)c43)CC2)c1.Cl [Compound 260, 5-((3,4-Dichlorobenzyl)amino)-1-(1-(5-methoxynicotinoyl)piperidin-4-yl)-1H-pyrazolo[4,3-d]pyrimidin-7(6H)-one hydrochloride] |  | 4 | 4 | 2 | 4 | 1 | > 64 | >64 | 4 |  |  |  | 
COCCn1nc(Cl)c2nc(NCc3ccc(Cl)c(Cl)c3)[nH]c(=O)c21 [Compound 304, 3-Chloro-5-((3,4-dichlorobenzyl)amino)-1-(2-methoxyethyl)-1H-pyrazolo[4,3-d]pyrimidin-7(6H)-one] | 1 (≈ 2.48 µM) | 1 (≈ 2.48 µM) | 2 (≈ 4.97 µM) | 0.5 (≈ 1.24 µM) | 2 (≈ 4.97 µM) | 0.5 (≈ 1.24 µM) | > 64 | >64 |  | ≤ 1 | ≤ 1 |  | 
COC(=O)COCCn1ncc2nc(NCc3ccc(Cl)c(Cl)c3)[nH]c(=O)c21 [Compound 287, methyl 2-(2-(5-((3,4-dichlorobenzyl)amino)-7-oxo-6,7-dihydro-1H-pyrazolo[4,3-d]pyrimidin-1-yl)ethoxy)acetate] |  | 4 (≈ 9.38 µM) | 8 (≈ 18.8 µM) |  | 16 (≈ 37.5 µM) | 2 (≈ 4.69 µM) | > 64 | >64 |  |  |  | 4/4 | 4/4
O=c1[nH]c(NCc2ccc(Cl)c(Cl)c2)nc2cnn(CCOC3CCOCC3)c12 [Compound 108, 5-((3,4-Dichlorobenzyl)amino)-1-(2-((tetrahydro-2H-pyran-4-yl)oxy)ethyl)-1H-pyrazolo[4,3-d]pyrimidin-7(6H)-one] |  | 4 (≈ 9.13 µM) | 8 (≈ 18.3 µM) |  | 4 (≈ 9.13 µM) | 2 (≈ 4.56 µM) | > 64 | >64 |  |  |  | 8/4 | 4/2
COc1cc(CNc2nc3cnn(C)c3c(=O)[nH]2)ccc1Cl [Compound 34, 5-((4-Chloro-3-methoxybenzyl)amino)-1-methyl-1H-pyrazolo[4,3-d]pyrimidin-7(6H)-one] |  | > 64 | > 64 | > 64 | 64 (≈ 200 µM) | > 64 | > 64 | >64 | > 64 |  |  |  | 
O=c1[nH]c(NCc2ccc(Cl)c(Cl)c2)nc2c(-c3ncco3)nn(CCOCCO)c12 [Compound 50, 5-((3,4-dichlorobenzyl)amino)-1-(2-(2-hydroxyethoxy)ethyl)-3-(oxazol-2-yl)-1H-pyrazolo[4,3-d]pyrimidin-7(6H)-one] |  | > 64 | > 64 | > 64 | > 64 | > 64 | > 64 | >64 | > 64 |  |  |  | 
